# According to patent US20140037583A1, “METHODS AND COMPOSITIONS SUITABLE FOR PREVENTING AND TREATING HYPERLEPTINEMIA” (priority 2011, published 2014):
# System: Leptin mRNA in terminally differentiated canine adipocytes
# Assay: Expression of leptin mRNA in canine adipocytes treated with Equol (quantitative PCR)
# Type: cell-based
# Conditions: 24 hours, n=3
# Procedure: Treatment: Terminally differentiated canine adipocytes were exposed to 200, 25, and 0 uM Equol for 24 hours. Cells were collected for RNA isolation.
# RNA Isolation: Treatment cell samples were vortexed and homogenized using a Quiashredder (Qiagen, Valencia, Calif.) column according to manufacturer's directions. The homogenized lysate was collected and 1 equal volume of 64% ethanol was added to it. This mixture was then applied to an RNAqueous™ filter cartridge, (Ambion Inc., Austin, Tex.) 700 uL at a time, and centrifuged for one minute at 10,000 rpm. The cartridge was washed using 700 uL wash solution #1 and 500 uL wash solution #2/3 with centrifugation at 10,000 rpm for one minute for each wash. The filter cartridge was dried by centrifugation (10,000 rpm) for one minute. […] The resulting RNA was DNAse-treated and quantitated in a Beckman DU 640B spectrophotometer (Beckman Coulter, Inc., Brea, Calif.) at 260 nm. Additionally, quantity and quality were assessed using a bioanalyzer (Agilent, Santa Clara, Calif.) according to manufacturer's directions.
# Quantitative PCR: All samples were run singularly against each primer/probe set to determine what standard curve(s) should be used. […] Values were normalized to cyclophilin A (PPIA) levels as determined by quantitative PCR. Inductions were calculated from each of the lowest sample's normalized value. […]
smiles,measurement,setting,value
Oc1ccc([C@H]2COc3cc(O)ccc3C2)cc1 [Equol],"Leptin mRNA expression (normalized to cyclophilin A, induction relative to lowest sample)",25 uM Equol,2.58
same,"Leptin mRNA expression (normalized to cyclophilin A, induction relative to lowest sample)",200 uM Equol,1.40
